Laboratory results taken from ChEMBL document CHEMBL1201862, “PubChem BioAssay data set” (2004).
Values joined by “and” are separate entries in the source; they are usually repeats but may differ in a detail not shown here. Equal values may be shown once. Active and inactive are the calls of the source.

Assays:
[1] = target: Acyl-homoserine lactone acylase PvdQ (Pseudomonas aeruginosa (strain LESB58), UniProt Q9I194); assay: PvdQ acylase enzyme activity blockers – biochemical, fluorescence, plate reader and imaging, cherry-picks, dose response (AID 493231)
[2] = target: T1, Voltage-gated N-type calcium channel alpha-1B subunit/Amyloid beta A4 precursor protein-binding family A member 1 (Homo sapiens, UniProt Q00975+Q02410); type: protein assay
[3] = target: T1, Voltage-gated N-type calcium channel alpha-1B subunit/Amyloid beta A4 precursor protein-binding family A member 1; type: protein assay; remark: listed apart in the source
Phosphomannomutase 2 = Phosphomannomutase 2 (Homo sapiens, UniProt O15305); assay: Counter screen SAR assay for PMM2 inhibitors via a fluorescence intensity assay. [Related pubchem assays (depositor defined):AID1545, AID1574]
[4] = target: C-C chemokine receptor type 6 (Homo sapiens, UniProt P51684); assay: antagonism of CCR6 beta-arrestin recruitment – cell-based, luminescent beta-arrestin readout, dose response (AID 504728); type: functional
Beta-galactosidase = Beta-galactosidase (Escherichia coli, UniProt Q8VNN2); assay: detection-enzyme interference by beta-gal modulators – biochemical, E. coli enzyme, set 3, artefact control for CCR6 antagonist project, dose response (AID 504712); type: functional
Galanin receptor type 3 = target: T2, Galanin receptor type 3 (Homo sapiens, UniProt O60755); assay: Fluorescence-based cell-based primary high throughput dose response assay to identify antagonists of the Galanin Receptor 3 (GalR3).; type: functional
T2 sequence (O60755 whole entry): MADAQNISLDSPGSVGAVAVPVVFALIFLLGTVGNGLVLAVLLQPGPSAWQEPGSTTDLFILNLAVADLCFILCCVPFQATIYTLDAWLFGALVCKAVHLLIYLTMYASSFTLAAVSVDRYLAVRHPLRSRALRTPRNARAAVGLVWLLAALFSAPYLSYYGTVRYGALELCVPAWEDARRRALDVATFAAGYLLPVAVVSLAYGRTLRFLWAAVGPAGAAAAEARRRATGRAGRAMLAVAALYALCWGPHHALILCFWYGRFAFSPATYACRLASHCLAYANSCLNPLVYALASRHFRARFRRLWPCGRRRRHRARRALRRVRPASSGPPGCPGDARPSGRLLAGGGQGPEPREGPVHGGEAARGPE

cells = type: functional, cell-based; conditions: HEK-CNG
[5] = viability loss in CEM21 cells – cell-based, CellTiter-Glo luminescence, cherry-picked, cytotoxicity control for viral fusion inhibitor project, dose response (AID 652042); type: functional;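 further: potency for signal decrease meaning cytotoxicity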
[6] = blockers of HIV-1 ZM109 envelope-driven cell-cell fusion – HeLa effector, CEM target cells, luciferase, cherry-pick, dose response (AID 652058); type: functional, cell-based;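 further: luciferase signal from HIV-1 Env mediated cell-cell fusion of effector and target cells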
[7] = HIV-1 AD8 envelope cell-cell fusion blockers – cherry-pick, dose response (AID 652062); type: functional, cell-based;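 further: luciferase signal from cell-cell fusion driven by HIV-1 clade B AD8 Env; potency is for inhibitors of fusion seen as a drop in luminescence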
[8] = Trypanosoma cruzi growth suppression in host cells – NIH3T3 host cells, beta-gal luminescence, confirmation (AID 2044); type: functional, cell-based;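 further: intracellular parasites grown in NIH/3T3 mouse fibroblasts as host cells; luminescent beta-galactosidase reporter signal from transgenic T. cruzi replicating inside host cells; inhibitors lower the luminescence signal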
[9] = viability of PTEN-deleted HCT116 cells – cell-based, HCT116 PTEN knockout, dose response (AID 1047); type: functional;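 further: HCT116 colon tumor cells with PTEN knocked out; cells exposed to compound for 60 hours before readout; potency for loss of cell viability measured by luminescence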
[10] = NIH3T3 cell viability loss – ATP luminescence, mouse fibroblasts, counter-screen, dose response (AID 2010); type: functional, cell-based;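 further: cells exposed to compound for about 90 hours before reading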
[11] = viability of HCT116 lacking mutant beta-catenin – cell-based, human colon tumor, dose response (AID 1045); type: functional;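 further: HCT116 colon tumor cells with beta catenin knocked out; cells exposed to compound for 60 hours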
[12] = NIH/3T3 cell viability loss – mouse embryonic fibroblasts, dry powder, set 2, cytotoxicity control, dose response (AID 493247); type: functional, cell-based; conditions: Fibroblast
Trypanosoma cruzi = assay: anti-trypanosomal activity in host cells – cell-based, plate reader, dry powder, set 3, dose response (AID 493197); type: functional
[13] = target: T3, Microphthalmia-associated transcription factor (Homo sapiens, UniProt O75030); assay: reducers of TRPM1 reporter luminescence, concentration series – cell-based, SK-MEL-5, cherry-picked, set 3, MITF inhibitor project, dose response (AID 493073); type: functional;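 further: SK-MEL-5 melanoma cells with luciferase driven by the MITF target TRPM1 promoter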
T3 sequence (O75030 whole entry): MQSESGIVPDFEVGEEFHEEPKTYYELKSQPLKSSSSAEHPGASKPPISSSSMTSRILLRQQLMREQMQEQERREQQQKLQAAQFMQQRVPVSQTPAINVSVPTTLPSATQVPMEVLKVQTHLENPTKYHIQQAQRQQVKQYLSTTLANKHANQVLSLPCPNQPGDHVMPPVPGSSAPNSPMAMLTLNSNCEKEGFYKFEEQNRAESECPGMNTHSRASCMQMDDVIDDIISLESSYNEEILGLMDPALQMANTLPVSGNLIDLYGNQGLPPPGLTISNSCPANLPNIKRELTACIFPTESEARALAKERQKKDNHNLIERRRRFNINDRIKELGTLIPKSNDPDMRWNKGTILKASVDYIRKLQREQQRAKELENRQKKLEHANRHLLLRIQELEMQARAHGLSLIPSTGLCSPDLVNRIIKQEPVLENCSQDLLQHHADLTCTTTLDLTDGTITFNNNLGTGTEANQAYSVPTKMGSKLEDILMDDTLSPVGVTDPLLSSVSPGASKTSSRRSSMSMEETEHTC

[14] = target: G-protein coupled receptor 55 (Homo sapiens, UniProt Q9Y2T6); assay: inhibition of LPI-stimulated GPR55 beta-arrestin translocation – imaging, U2OS, beta-arrestin-GFP, LPI agonist, primary screen (AID 2013); type: functional;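 further: antagonist potency measured as reduced agonist-driven arrestin aggregation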
[15] = microbe, parasite or virus in culture; type: functional; conditions: Mycobacterium tuberculosis

T1 sequence (Q00975 whole entry): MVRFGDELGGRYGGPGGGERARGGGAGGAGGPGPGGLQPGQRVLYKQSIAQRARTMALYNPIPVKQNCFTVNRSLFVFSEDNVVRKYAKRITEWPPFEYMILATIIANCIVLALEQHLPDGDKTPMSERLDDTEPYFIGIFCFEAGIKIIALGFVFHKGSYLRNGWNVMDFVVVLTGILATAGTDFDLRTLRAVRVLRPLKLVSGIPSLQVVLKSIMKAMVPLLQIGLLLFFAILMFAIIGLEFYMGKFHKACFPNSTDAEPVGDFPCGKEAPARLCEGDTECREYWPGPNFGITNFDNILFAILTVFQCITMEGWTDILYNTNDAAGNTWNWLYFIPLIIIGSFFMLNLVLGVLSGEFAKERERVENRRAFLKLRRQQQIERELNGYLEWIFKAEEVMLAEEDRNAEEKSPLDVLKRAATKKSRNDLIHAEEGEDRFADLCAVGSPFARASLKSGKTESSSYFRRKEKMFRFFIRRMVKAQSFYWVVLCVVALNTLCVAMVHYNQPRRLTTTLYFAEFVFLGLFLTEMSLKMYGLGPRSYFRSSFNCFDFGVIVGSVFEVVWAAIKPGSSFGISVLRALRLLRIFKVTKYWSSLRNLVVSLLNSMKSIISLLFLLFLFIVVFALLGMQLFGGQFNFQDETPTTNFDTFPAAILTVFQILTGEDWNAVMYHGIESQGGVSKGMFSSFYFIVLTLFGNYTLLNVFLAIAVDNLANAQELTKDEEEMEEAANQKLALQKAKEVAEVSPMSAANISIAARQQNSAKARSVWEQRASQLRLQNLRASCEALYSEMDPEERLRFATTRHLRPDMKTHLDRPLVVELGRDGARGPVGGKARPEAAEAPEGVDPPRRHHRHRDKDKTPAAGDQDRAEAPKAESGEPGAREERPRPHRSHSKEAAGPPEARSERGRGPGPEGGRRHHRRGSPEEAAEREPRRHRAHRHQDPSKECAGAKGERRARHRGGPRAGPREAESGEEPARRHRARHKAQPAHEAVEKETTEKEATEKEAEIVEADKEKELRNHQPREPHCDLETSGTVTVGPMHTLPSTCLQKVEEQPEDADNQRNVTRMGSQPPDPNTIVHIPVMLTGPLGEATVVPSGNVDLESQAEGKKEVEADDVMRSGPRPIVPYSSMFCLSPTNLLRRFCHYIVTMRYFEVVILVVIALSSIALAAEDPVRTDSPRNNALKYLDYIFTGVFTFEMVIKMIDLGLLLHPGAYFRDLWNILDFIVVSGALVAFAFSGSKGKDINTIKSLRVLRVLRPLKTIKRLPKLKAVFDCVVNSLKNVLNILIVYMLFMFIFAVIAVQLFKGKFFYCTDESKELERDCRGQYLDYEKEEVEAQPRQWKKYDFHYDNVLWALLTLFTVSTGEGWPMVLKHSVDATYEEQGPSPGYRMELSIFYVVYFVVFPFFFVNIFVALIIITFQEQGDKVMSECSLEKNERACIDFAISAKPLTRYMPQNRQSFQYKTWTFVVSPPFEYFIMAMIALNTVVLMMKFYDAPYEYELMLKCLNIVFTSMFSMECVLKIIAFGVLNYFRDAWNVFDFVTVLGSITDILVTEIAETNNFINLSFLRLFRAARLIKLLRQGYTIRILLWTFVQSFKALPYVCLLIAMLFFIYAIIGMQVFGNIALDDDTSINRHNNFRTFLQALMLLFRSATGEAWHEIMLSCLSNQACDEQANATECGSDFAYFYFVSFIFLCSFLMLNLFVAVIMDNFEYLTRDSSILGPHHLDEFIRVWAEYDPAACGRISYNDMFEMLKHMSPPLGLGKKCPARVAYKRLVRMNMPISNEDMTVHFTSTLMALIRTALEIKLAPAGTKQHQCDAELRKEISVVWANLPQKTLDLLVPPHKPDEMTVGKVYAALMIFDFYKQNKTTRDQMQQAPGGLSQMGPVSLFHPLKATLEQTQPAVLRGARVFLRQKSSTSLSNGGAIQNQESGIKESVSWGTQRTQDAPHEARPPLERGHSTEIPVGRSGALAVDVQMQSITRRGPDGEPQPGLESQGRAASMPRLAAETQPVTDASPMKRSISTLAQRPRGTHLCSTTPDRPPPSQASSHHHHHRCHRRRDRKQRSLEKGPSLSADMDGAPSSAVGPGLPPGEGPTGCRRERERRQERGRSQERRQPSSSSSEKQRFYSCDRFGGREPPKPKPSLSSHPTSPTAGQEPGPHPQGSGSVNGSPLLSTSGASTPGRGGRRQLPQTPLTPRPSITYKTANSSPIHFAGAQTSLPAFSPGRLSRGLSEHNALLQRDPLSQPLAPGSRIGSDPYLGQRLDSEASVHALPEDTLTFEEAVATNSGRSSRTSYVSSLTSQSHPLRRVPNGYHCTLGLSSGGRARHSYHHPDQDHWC
T1 sequence (Q02410 whole entry): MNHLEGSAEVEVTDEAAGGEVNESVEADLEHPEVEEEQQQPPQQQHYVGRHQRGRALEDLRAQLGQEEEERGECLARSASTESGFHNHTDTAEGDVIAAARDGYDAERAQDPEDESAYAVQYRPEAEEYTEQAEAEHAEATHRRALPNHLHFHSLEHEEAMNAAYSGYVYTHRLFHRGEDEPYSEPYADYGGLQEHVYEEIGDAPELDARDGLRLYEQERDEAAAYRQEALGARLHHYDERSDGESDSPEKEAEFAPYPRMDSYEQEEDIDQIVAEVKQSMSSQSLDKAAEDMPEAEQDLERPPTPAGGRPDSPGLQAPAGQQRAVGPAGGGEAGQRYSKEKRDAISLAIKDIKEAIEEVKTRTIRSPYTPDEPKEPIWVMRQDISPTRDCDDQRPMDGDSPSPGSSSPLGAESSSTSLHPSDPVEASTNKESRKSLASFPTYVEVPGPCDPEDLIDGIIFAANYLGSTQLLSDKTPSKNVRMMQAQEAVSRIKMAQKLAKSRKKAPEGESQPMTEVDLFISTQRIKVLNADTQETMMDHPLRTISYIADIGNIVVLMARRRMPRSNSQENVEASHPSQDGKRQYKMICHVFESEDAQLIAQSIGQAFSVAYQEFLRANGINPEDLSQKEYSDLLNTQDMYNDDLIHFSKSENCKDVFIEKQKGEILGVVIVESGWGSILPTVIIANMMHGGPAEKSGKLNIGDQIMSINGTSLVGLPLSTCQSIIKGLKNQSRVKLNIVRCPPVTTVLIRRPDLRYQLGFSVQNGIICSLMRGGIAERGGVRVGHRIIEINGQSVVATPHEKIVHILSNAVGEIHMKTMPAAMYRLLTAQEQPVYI
Sequence of C-C chemokine receptor type 6 (P51684 whole entry): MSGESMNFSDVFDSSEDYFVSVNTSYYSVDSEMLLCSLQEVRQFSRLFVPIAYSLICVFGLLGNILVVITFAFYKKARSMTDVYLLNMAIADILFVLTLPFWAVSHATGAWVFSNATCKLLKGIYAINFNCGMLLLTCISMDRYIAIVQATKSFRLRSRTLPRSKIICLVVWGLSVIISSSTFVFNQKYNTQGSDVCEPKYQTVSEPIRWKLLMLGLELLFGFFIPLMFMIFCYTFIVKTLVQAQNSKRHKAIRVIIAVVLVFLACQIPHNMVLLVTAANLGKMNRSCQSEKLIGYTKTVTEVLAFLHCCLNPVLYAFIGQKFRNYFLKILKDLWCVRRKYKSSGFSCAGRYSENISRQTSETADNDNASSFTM
Sequence of Acyl-homoserine lactone acylase PvdQ (Q9I194 24-193 limits assumed): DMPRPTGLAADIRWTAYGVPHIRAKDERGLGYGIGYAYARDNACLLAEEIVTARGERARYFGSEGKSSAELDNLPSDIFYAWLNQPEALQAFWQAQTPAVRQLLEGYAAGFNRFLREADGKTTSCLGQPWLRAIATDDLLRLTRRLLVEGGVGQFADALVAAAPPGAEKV
Sequence of Acyl-homoserine lactone acylase PvdQ (Q9I194 217-762 limits assumed): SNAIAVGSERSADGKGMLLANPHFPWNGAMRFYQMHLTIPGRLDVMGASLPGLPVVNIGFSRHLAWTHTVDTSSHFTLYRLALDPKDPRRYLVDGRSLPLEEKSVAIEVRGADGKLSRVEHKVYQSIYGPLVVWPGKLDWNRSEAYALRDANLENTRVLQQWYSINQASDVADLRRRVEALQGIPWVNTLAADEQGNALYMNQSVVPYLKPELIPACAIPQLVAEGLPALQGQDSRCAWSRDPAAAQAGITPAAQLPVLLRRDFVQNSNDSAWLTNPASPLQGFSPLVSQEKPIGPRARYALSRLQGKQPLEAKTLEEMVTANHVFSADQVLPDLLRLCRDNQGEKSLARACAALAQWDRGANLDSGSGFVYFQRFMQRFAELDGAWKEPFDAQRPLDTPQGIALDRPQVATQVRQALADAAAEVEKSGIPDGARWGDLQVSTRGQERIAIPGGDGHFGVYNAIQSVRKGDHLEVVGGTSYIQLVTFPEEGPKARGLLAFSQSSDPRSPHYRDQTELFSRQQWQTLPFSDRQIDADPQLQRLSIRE
Sequence of G-protein coupled receptor 55 (Q9Y2T6 whole entry): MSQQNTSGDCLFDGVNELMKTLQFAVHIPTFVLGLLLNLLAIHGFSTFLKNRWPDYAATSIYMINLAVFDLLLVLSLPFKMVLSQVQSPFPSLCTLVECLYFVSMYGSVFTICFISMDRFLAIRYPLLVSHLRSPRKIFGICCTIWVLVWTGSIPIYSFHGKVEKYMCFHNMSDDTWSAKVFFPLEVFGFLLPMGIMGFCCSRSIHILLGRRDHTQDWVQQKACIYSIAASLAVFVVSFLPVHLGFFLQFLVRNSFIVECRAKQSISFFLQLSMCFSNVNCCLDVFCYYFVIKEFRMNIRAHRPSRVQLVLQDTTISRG
Sequence of Phosphomannomutase 2 (O15305 whole entry): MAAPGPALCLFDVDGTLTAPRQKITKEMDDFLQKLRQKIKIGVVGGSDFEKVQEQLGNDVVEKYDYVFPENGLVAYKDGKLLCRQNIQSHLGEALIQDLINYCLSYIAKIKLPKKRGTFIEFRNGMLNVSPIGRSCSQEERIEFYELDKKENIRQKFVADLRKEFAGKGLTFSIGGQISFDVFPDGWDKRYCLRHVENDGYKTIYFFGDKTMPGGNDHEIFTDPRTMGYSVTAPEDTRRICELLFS

## CC(C)CCNC(=O)c1cccc(Cl)c1
[1]
  AC50: 6.33 µM (active)

## O=C(O)Cc1sc(Nc2ccc(F)cc2)nc1-c1cccs1
[2]
  IC50: 9.21 µM (active)
[3]
  IC50: > 50 µM (inactive)

## O=c1c2ccccc2sn1-c1cccc(I)c1
Phosphomannomutase 2
  IC50: > 100 µM (inactive)

## COCC(C)n1c(-c2ccc3c(c2)NC(=O)CO3)cs/c1=N\c1ccc(OC(F)F)cc1 (stereo not given)
[4]
  IC50: > 66.6 µM (inactive)
Beta-galactosidase
  IC50: > 66.6 µM (inactive)
Galanin receptor type 3
  IC50: 4.24 µM (active) and 3.49 µM (active)
cells
  EC50: > 29.9 µM (inactive)
[5]
  AC50: 42.7 µM (active)
[6]
  AC50: 4.28 µM (active)
[7]
  AC50: 3.15 µM (active)

## O=C(COc1ccccc1)N/N=C/c1ccc([N+](=O)[O-])o1
[8]
  EC50: 0.122 µM (active)
[9]
  EC50: 7.39 µM (active)
[10]
  EC50: > 60 µM (not active)
[11]
  EC50: 6.95 µM (active)
[12]
  AC50: 21.2 µM (active)
Trypanosoma cruzi
  AC50: 0.317 µM (active)
[13]
  AC50: 21.5 µM (active)

## CC(C)(C)c1nn(-c2ccccc2)c2[nH]c(=O)c(CNCc3ccc4c(c3)OCO4)cc12
[14]
  IC50: 2.67 µM (active)
[15]
  CC50: 27.2 µM (active)
